“Also recorded” adds a separate entry of the source. Where two headings read alike, the source gives them in different places.
How the values were obtained:
[1] = test system: empty vector (EV) HEK293 cells; assay: ASP+ uptake in empty vector (EV) HEK293 cells in presence of inhibitors; format: cell-based, human; conditions: ASP+ 10 μM
Excerpt: Media was removed and washed four times with ice-cold HBSS. Cells were lysed with 1% Triton X-100. […] Experiments were repeated three separate times, with three to four replicates in each experiment.

human OCT2 and MATE1 [2] = assay: Intracellular accumulation of ASP+ in OCT2/MATE1 double-transfected MDCK cells; format: cell-based; conditions: 120 min; for effect on intracellular ASP+ accumulation: inhibitor 0.5–20 μM, ASP+ 25 μM; for increase in intracellular ASP+ accumulation: inhibitor 20 μM (highest concentration)
Method: Cells were incubated with 5-HT3 antagonists in the apical chamber in HBSS pH 6.0 and 5-HT3 antagonists with ASP^+ (25 μM) in the basolateral chamber in HBSS pH 7.4 and incubated at 37 °C for 120 min. To measure time-dependent transcellular transport, an aliquot of the incubation medium (100 μL) from the apical chamber (receiving chamber) was collected at 40, 60, 90, and 120 min and replaced with an equal volume of fresh buffer containing 5-HT3 antagonist or the positive control chemical at the original concentration. […] Cells were lysed with 1% Triton X-100. […] Experiments were performed in three individual Transwell inserts.

OCT2 and MATE1 = assay: Inhibition of basolateral-to-apical transcellular transport of ASP+ in OCT2/MATE1 double-transfected MDCK cells (Transwell); conditions: human
Method: (§1) Control and OCT2/MATE1-expressing MDCK cells were evaluated for protein expression of OCT2 and MATE1 using SDS-PAGE and western blotting with specific primary antibodies (OCT2, sc292622 1:500 and MATE1, sc133390 1:250, Santa Cruz Biotechnology, Santa Cruz, CA, USA), followed by an antirabbit HRP-conjugated secondary antibody (1:1000, Sigma Aldrich, St. Louis, MO, USA) and Super Signal Western Dura Extended Duration Substrate (Pierce Biotechnology, Rockford, IL, USA). Detection was performed with a FluorChem imager (ProteinSimple, Santa Clara, CA, USA). Both MDCK cell lines were seeded on 0.4 μm transwell inserts (VWR, Radnor, PA, USA) at a density of 2 × 10^5 cells/cm^2. Transport experiments were performed 3 to 5 days after seeding. The integrity of MDCK monolayers was verified by measuring transepithelial electrical resistance (TEER) >150 Ω*cm^2 using an epithelial voltohmmeter, EVOM^2 (World Precision Instruments, Sarasota, FL). Proper formation of tight junctions was also verified by measurement of passive permeability of lucifer yellow in the basolateral-to-apical (B-to-A) direction. Lucifer yellow (20 μM) was applied to the basolateral chamber for 1 h, and media were collected from the apical chamber.
(§2) After washing the cells once with Hank’s Buffered Saline Solution (HBSS) pH 7.4, transport studies were initiated after aspirating the wash buffer from both the apical and basal chambers. […] Cells were lysed with 1% Triton X-100. […] Intracellular fluorescence was normalized to total protein concentration of cell lysates from each transwell using the BCA assay. Experiments were performed in three individual Transwell inserts.

human OCT2 = molecular target: T1, human OCT2 (Homo sapiens, UniProt O15244); assay: Inhibition of ASP+ uptake in HEK293 cells overexpressing OCT2; format: cell-based; conditions: for IC50: HEK293-OCT2, ASP+ 10 μM, 1 min, 37 °C, Avg ± SE (n = 3)
T1 construct: expressed in transfected cells; gift of Dr. Kathy Giacomini, UCSF
T1 sequence (O15244 1-555): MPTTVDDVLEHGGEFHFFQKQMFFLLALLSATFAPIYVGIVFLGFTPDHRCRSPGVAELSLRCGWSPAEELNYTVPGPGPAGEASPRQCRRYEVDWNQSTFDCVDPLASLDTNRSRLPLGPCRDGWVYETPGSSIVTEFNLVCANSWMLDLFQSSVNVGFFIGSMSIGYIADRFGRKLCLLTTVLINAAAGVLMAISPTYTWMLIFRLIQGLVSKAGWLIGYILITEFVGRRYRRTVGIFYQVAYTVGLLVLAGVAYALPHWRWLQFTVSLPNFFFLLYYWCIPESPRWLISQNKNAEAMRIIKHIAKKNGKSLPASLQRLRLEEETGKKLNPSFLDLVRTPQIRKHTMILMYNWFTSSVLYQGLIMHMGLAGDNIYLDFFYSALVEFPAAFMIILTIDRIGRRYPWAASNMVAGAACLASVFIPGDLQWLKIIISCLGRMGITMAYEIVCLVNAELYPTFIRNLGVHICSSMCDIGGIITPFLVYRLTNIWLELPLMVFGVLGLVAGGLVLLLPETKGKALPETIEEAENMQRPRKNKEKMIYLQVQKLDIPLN
Method: (§3) After washing once with prewarmed Hank’s Buffered Saline Solution (HBSS), cells were preincubated for 30 min at 37 °C with various 5-HT3 antagonists for OCT2 cells or in a 30 mM NH4Cl solution in HBSS at pH 6.5 for MATE1 cells for intracellular acidification. Uptake into OCT2 cells was initiated through exposure to 10 μM of fluorescent substrate ASP^+ directly in the incubation media. Uptake into MATE1 cells was initiated by application of HBSS at pH 7.4 containing 5-HT3 antagonists and 10 μM of fluorescent substrate ASP^+. […] Media was removed and washed four times with ice-cold HBSS. Cells were lysed with 1% Triton X-100. […] Intracellular fluorescence was normalized to total protein concentration of cell lysates from each well using the bicinchoninic acid (BCA) assay (Pierce Biotechnology, Rockford, IL, USA). Experiments were repeated three separate times, with three to four replicates in each experiment.
(§4) GraphPad Prism v6 (GraphPad Software, La Jolla, CA, USA) was used for statistical analysis.

[3] = no reference given, cited from earlier work; for metabolized by cytochrome P450 enzymes in the liver: range for the named drugs together
human OCT2 and MATE1 [4] = assay: Inhibition of basolateral-to-apical transcellular transport of ASP+ in OCT2/MATE1 double-transfected MDCK cells (Transwell); conditions: for effect on B-to-A transport of ASP+: inhibitor 0.5–20 μM, 40–120 min, ASP+ 25 μM; for effect on transcellular transport of ASP+: inhibitor 10 and 20 μM
Method: as §1, §2

MATE1 = molecular target: T2, MATE1 (Homo sapiens, UniProt Q96FL8); assay: Inhibition of ASP+ uptake in HEK293 cells overexpressing MATE1; format: cell-based; conditions: for IC50: HEK293-MATE1, ASP+ 10 μM, 1 min, 37 °C, Avg ± SE (n = 3)
T2 construct: expressed in transfected cells; gift of Dr. Kathy Giacomini, UCSF
T2 sequence (Q96FL8 1-570): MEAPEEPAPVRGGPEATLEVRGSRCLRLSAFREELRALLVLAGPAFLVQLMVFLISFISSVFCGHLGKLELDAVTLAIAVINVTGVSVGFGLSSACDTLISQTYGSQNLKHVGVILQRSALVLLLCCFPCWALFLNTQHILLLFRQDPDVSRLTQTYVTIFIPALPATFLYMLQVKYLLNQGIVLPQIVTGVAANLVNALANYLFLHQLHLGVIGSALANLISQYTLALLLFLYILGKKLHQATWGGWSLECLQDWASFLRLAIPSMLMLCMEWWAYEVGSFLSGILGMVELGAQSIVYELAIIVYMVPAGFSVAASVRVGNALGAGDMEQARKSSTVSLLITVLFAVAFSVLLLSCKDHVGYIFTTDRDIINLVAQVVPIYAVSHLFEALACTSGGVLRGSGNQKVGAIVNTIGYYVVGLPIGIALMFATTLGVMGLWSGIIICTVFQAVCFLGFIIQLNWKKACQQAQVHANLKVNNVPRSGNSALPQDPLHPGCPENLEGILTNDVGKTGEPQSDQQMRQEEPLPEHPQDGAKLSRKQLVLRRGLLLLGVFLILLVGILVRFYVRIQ
Method: as §3, §4

[5] = probe ASP+ (25 μM, basolateral chamber)

SMILES	IC50 (human OCT2)	IC50 (MATE1)	effect on ASP+ uptake in EV cells [1]	half-life [3]	effect on B-to-A transport of ASP+ (human OCT2 and MATE1 [4])	effect on transcellular transport of ASP+ (human OCT2 and MATE1 [4])	metabolized by cytochrome P450 enzymes in the liver [3]	further results
CN/C(=N/CCSCc1nc[nH]c1C)NC#N [Cimetidine]	24.5 ± 4 µM	–	had no influence on ASP^+ uptake	–	–	–	–	increase in intracellular accumulation of ASP+ (human OCT2 and MATE1 [2]; cimetidine concentration not stated in the sentence (5 and 50 μM tested)): 1.8 fold; inhibition at 120 min, 5 μM (OCT2 and MATE1; [5]): 18%; inhibition at 120 min, 50 μM (OCT2 and MATE1; [5]): 40%
O=C1c2cccc3c2[C@H](CCC3)CN1[C@@H]1CN2CCC1CC2 [Palonosetron]	2.2 ± 0.3 µM	1.6 ± 0.6 µM	stimulated additional ASP^+ uptake	40 h	concentration-dependent inhibition of ASP^+ secretion, which was significant at 10 and 20 μM for all time-points	similarly reduced the transcellular transport of ASP^+	48–95%	effect on intracellular ASP+ accumulation (human OCT2 and MATE1 [2]): No significant changes in ASP^+ accumulation
C[C@@H](O[C@H]1OCCN(Cc2n[nH]c(=O)[nH]2)[C@H]1c1ccc(F)cc1)c1cc(C(F)(F)F)cc(C(F)(F)F)c1 [aprepitant]	–	–	–	–	–	–	–	effect on ASP+ uptake in MATE1-expressing HEK293 cells (MATE1; ASP+ 10 μM): had no impact on ASP^+ uptake; effect on ASP+ uptake in OCT2-expressing HEK293 cells (human OCT2; ASP+ 10 μM): had no impact on ASP^+ uptake
CCN(CC)CCNC(=O)c1cc(Cl)c(N)cc1OC [metoclopramide]	–	–	–	–	–	–	–	inhibition of MATE1 activity (MATE1): None of these drugs inhibited MATE1 activity; effect on ASP+ uptake in OCT2-expressing HEK293 cells (human OCT2): inhibited OCT2 activity across a range of concentrations
CN1CCN(CCCN2c3ccccc3Sc3ccc(Cl)cc32)CC1 [prochlorperazine]	–	–	–	–	–	–	–	inhibition of MATE1 activity (MATE1; inhibitor 10 μM, HEK293-MATE1 (data not shown)): None of these drugs inhibited MATE1 activity; effect on ASP+ uptake in OCT2-expressing HEK293 cells (human OCT2; ASP+ 10 μM): inhibited OCT2 activity across a range of concentrations
CCc1nc(N)nc(N)c1-c1ccc(Cl)cc1 [pyrimethamine]	–	–	–	–	–	–	–	increase in intracellular accumulation of ASP+ (human OCT2 and MATE1 [2]; inhibitor 1 μM): 1.3 fold; inhibition at 120 min, 1 μM (OCT2 and MATE1): 36%

Further lines, with some results ahead:

IC50 (human OCT2)	IC50 (MATE1)	SMILES	effect on ASP+ uptake in EV cells [1]	half-life [3]	effect on B-to-A transport of ASP+ (human OCT2 and MATE1 [4])	effect on transcellular transport of ASP+ (human OCT2 and MATE1 [4])	metabolized by cytochrome P450 enzymes in the liver [3]	further results
85.4 ± 3.4 µM	27.4 ± 2.8 µM	O=C(O[C@@H]1C[C@@H]2C[C@H]3C[C@H](C1)N2CC3=O)c1c[nH]c2ccccc12 [Dolasetron]	–	8 to 9 h	at 10 and 20 μM inhibited ASP^+ transport at 120 min only	similarly reduced the transcellular transport of ASP^+	–	effect on intracellular ASP+ accumulation (human OCT2 and MATE1 [2]): No significant changes in ASP^+ accumulation
3.8 ± 1.6 µM	5 ± 1.1 µM	CN1C2CCCC1CC(NC(=O)c1nn(C)c3ccccc13)C2 (stereo not drawn) [Granisetron]	caused a small decrease in ASP^+ accumulation	8 to 9 h	did not alter the B-to-A transport of ASP^+ at any concentration tested; also recorded: did not exhibit any significant inhibition	–	48–95%	increase in intracellular ASP+ accumulation (human OCT2 and MATE1 [2]): 1.3 fold
31.3 ± 6.6 µM	1.6 ± 0.9 µM	CN1[C@@H]2CC[C@H]1C[C@@H](OC(=O)c1c[nH]c3ccccc13)C2 [Tropisetron]	stimulated additional ASP^+ uptake	< 6 h	concentration-dependent inhibition of ASP^+ secretion, which was significant at 10 and 20 μM for all time-points	similarly reduced the transcellular transport of ASP^+	48–95%	increase in intracellular ASP+ accumulation (human OCT2 and MATE1 [2]): 1.5 fold

— paper PMC8234231, “In Vitro Inhibition of Renal OCT2 and MATE1 Secretion by Antiemetic Drugs” (International Journal of Molecular Sciences, 2021)
